# From patent publication US7348163B2, “Human GABAB receptor 1 promoters” (AstraZeneca AB, priority 1999, dated 2008)
# System: human GABAB receptor 1 promoter P1b
# Assay: Luciferase reporter assay of GABAB receptor 1 promoter P1b activity (pAM440) in transfected ND7/23 cells
# Type: cell-based
# Conditions: Forskolin 10 μM + 1-methyl-3-isobutylxanthine 0.125 mM, 24 h
# Method: Reporter constructs containing R1a and R1b promoter fragments were generated by PCR using plasmid pAM 364, containing genomic sequence covering the promoter regions, as template. PCR reaction was performed by standard procedure (Perkin Elmer). Briefly, an initial denaturation at 95° C. for 4 min was followed by 35 cycles of denaturation at 95° C. for 1 min, annealing at 60° C. for 1 min, elongation at 72° C. for 1 min and finally a 7 min elongation at 72° C. […]
# To determine putative promoter activity, the reporter gene constructs were introduced into mammalian cells by transfection. […] Luciferase activity in cell extracts was measured in a Luciferase Assay System (Promega), where 40 μl of cell extracts was added to a 96-well plate (Maxisorp, Nunc) and mixed with 50 μl of luciferase substrate. Luciferase activity was then measured in a LUMIstar (BMG Lab technologies). As internal control for transfection efficiency, β-Galactosidase (β-Gal.) activity was measured in 96-well plate (Maxisorp, Nunc) using a β-Galactosidase Enzyme Assay (Promega) according to suppliers protocol.
# ND7/23 cells (4×10^5) were transfected with promoter-luciferase constructs as described above. […] After incubation, cells were harvested and luciferase activity measured. Luciferase activity, minus background, is shown as arbitrary light units measured in 40 μl of cell extracts. […]
smiles,measurement,value
"CC(C)Cn1c(=O)n(C)c(=O)c2[nH]cnc21 [IBMX, 1-methyl-3-isobutylxanthine]",further enhancement of forskolin induced expression,does not show a significant difference
